Measurements as given in ChEMBL document CHEMBL3046063, “Synthesis and antimicrobial activity of 5-chloroindoline-2,3-dione derivatives” (2012).
Values after ≈ are worked out from the molar mass of the structure shown.

Key:
Type in all cases: functional
Aspergillus niger = test: Antimicrobial activity against Aspergillus niger ATCC 9142 after 24 hr by broth dilution method; conditions: ATCC 9142, 24 h
Pseudomonas aeruginosa = test: Antimicrobial activity against Pseudomonas aeruginosa ATCC 10145 after 24 hr by broth dilution method; conditions: ATCC 10145, 24 h
Aspergillus flavus = test: Antimicrobial activity against Aspergillus flavus ATCC 15517 after 24 hr by broth dilution method; conditions: ATCC 15517, 24 h
Bacillus cereus = test: Antimicrobial activity against Bacillus cereus ATCC 11778 after 24 hr by broth dilution method; conditions: ATCC 11778, 24 h
Proteus mirabilis = test: Antimicrobial activity against Proteus mirabilis ATCC 49565 after 24 hr by broth dilution method; conditions: ATCC 49565, 24 h
Staphylococcus hominis = test: Antimicrobial activity against Staphylococcus hominis ATCC 27844 after 24 hr by broth dilution method; conditions: ATCC 27844, 24 h
Fusarium solani = test: Antimicrobial activity against Fusarium solani ATCC 38136 after 24 hr by broth dilution method; conditions: ATCC 38136, 24 h
Aspergillus awamori = test: Antimicrobial activity against Aspergillus awamori ATCC 22342 after 24 hr by broth dilution method; conditions: ATCC 22342, 24 h
Microsporum canis = test: Antimicrobial activity against Arthroderma otae ATCC 11622 after 24 hr by broth dilution method; conditions: ATCC 11622, 24 h
Candida albicans = test: Antimicrobial activity against Candida albicans ATCC 10231 after 24 hr by broth dilution method; conditions: ATCC 10231, 24 h
Micrococcus luteus = test: Antimicrobial activity against Micrococcus luteus ATCC 4698 after 24 hr by broth dilution method; conditions: ATCC 4698, 24 h
Alternaria alternata = test: Antimicrobial activity against Alternaria alternata ATCC 66868 after 24 hr by broth dilution method; conditions: ATCC 66868, 24 h
Trichoderma viride = test: Antimicrobial activity against Hypocrea rufa ATCC 52440 after 24 hr by broth dilution method; conditions: ATCC 52440, 24 h
[1] = test system: Staphylococcus epidermidis; test: Antimicrobial activity against Staphylococcus epidermidis ATCC 12228 after 24 hr by broth dilution method; conditions: ATCC 12228, 24 h
Proteus vulgaris = test: Antimicrobial activity against Proteus vulgaris ATCC 13315 after 24 hr by broth dilution method; conditions: ATCC 13315, 24 h
Bacillus pumilus = test: Antimicrobial activity against Bacillus pumilus ATCC 14884 after 24 hr by broth dilution method; conditions: ATCC 14884, 24 h
Salmonella typhi = test: Antimicrobial activity against Salmonella enterica subsp. enterica serovar Typhi ATCC 19430 after 24 hr by broth dilution method; conditions: ATCC 19430, 24 h
Bacillus spizizenii = test: Antimicrobial activity against Bacillus subtilis subsp. spizizenii ATCC 6633 after 24 hr by broth dilution method; conditions: ATCC 6633, 24 h
Escherichia coli = test: Antimicrobial activity against Escherichia coli ATCC 25922 after 24 hr by broth dilution method; conditions: ATCC 25922, 24 h
Staphylococcus aureus = test: Antimicrobial activity against Staphylococcus aureus ATCC 25923 after 24 hr by broth dilution method; conditions: ATCC 25923, 24 h
Rhizoctonia solani = test: Antimicrobial activity against Rhizoctonia solani ATCC 76131 after 24 hr by broth dilution method; conditions: ATCC 76131, 24 h
Aspergillus fumigatus = test: Antimicrobial activity against Aspergillus fumigatus after 24 hr by broth dilution method
Trichophyton longifusum = test: Antimicrobial activity against Trichophyton longifusum ATCC 22397 after 24 hr by broth dilution method; conditions: ATCC 22397, 24 h
Klebsiella pneumoniae = test: Antimicrobial activity against Klebsiella pneumoniae ATCC 13883 after 24 hr by broth dilution method; conditions: ATCC 13883, 24 h

Compound	MIC (Aspergillus niger) [µg/mL]	MIC (Pseudomonas aeruginosa) [µg/mL]	MIC (Aspergillus flavus) [µg/mL]	MIC (Bacillus cereus) [µg/mL]	MIC (Proteus mirabilis) [µg/mL]	MIC (Staphylococcus hominis) [µg/mL]	MIC (Fusarium solani) [µg/mL]	MIC (Aspergillus awamori) [µg/mL]	MIC (Microsporum canis) [µg/mL]	MIC (Candida albicans) [µg/mL]	MIC (Micrococcus luteus) [µg/mL]	MIC (Alternaria alternata) [µg/mL]	MIC (Trichoderma viride) [µg/mL]	MIC [1] [µg/mL]	MIC (Proteus vulgaris) [µg/mL]	MIC (Bacillus pumilus) [µg/mL]	MIC (Salmonella typhi) [µg/mL]	MIC (Bacillus spizizenii) [µg/mL]	MIC (Escherichia coli) [µg/mL]	MIC (Staphylococcus aureus) [µg/mL]	further results
COc1cccc(C2C(Cl)C(=O)N2/N=C2\C(=O)Nc3ccc(Cl)cc32)c1 (configuration not stated)	37.5 (≈ 96.1 µM)	37.5 (≈ 96.1 µM)	18.8 (≈ 48 µM)	37.5 (≈ 96.1 µM)	75 (≈ 192 µM)	75 (≈ 192 µM)	37.5 (≈ 96.1 µM)	37.5 (≈ 96.1 µM)	37.5 (≈ 96.1 µM)	18.8 (≈ 48 µM)	37.5 (≈ 96.1 µM)	18.8 (≈ 48 µM)	37.5 (≈ 96.1 µM)	37.5 (≈ 96.1 µM)	75 (≈ 192 µM)	75 (≈ 192 µM)	75 (≈ 192 µM)	75 (≈ 192 µM)	75 (≈ 192 µM)	75 (≈ 192 µM)	MIC (Rhizoctonia solani): 18.8 µg/mL (≈ 48 µM); MIC (Aspergillus fumigatus): 18.8 µg/mL (≈ 48 µM); MIC (Trichophyton longifusum): 18.8 µg/mL (≈ 48 µM); MIC (Klebsiella pneumoniae): 37.5 µg/mL (≈ 96.1 µM)
O=C1Nc2ccc(Cl)cc2/C1=N/N1C(=O)CSC1c1ccccc1Cl (configuration not stated)	75 (≈ 191 µM)	150 (≈ 382 µM)	150 (≈ 382 µM)	150 (≈ 382 µM)	300 (≈ 765 µM)	150 (≈ 382 µM)	150 (≈ 382 µM)	150 (≈ 382 µM)	75 (≈ 191 µM)	150 (≈ 382 µM)	300 (≈ 765 µM)	150 (≈ 382 µM)	75 (≈ 191 µM)	150 (≈ 382 µM)	300 (≈ 765 µM)	150 (≈ 382 µM)	150 (≈ 382 µM)	300 (≈ 765 µM)	150 (≈ 382 µM)	300 (≈ 765 µM)	MIC (Rhizoctonia solani): 75 µg/mL (≈ 191 µM); MIC (Aspergillus fumigatus): 150 µg/mL (≈ 382 µM); MIC (Trichophyton longifusum): 150 µg/mL (≈ 382 µM); MIC (Klebsiella pneumoniae): 150 µg/mL (≈ 382 µM)
O=C1Nc2ccc(Cl)cc2/C1=N/N1C(=O)C(Cl)C1c1ccc(O)cc1 (configuration not stated)	4.68 (≈ 12.4 µM)	9.37 (≈ 24.9 µM)	4.68 (≈ 12.4 µM)	9.37 (≈ 24.9 µM)	9.37 (≈ 24.9 µM)	18.8 (≈ 49.8 µM)	9.37 (≈ 24.9 µM)	4.68 (≈ 12.4 µM)	4.68 (≈ 12.4 µM)	4.68 (≈ 12.4 µM)	18.8 (≈ 49.8 µM)	4.68 (≈ 12.4 µM)	4.68 (≈ 12.4 µM)	9.37 (≈ 24.9 µM)	9.37 (≈ 24.9 µM)	9.37 (≈ 24.9 µM)	9.37 (≈ 24.9 µM)	9.37 (≈ 24.9 µM)	9.37 (≈ 24.9 µM)	18.8 (≈ 49.8 µM)	MIC (Rhizoctonia solani): 4.68 µg/mL (≈ 12.4 µM); MIC (Aspergillus fumigatus): 4.68 µg/mL (≈ 12.4 µM); MIC (Trichophyton longifusum): 4.68 µg/mL (≈ 12.4 µM); MIC (Klebsiella pneumoniae): 18.8 µg/mL (≈ 49.8 µM)
